Data taken from paper PMC10269165 (Antimicrobial Agents and Chemotherapy, 2023).

System: MDR isolate of H. contortus, exsheathed L3 larvae
Experiment: Larval motility assay (LMA), Worminator
Format: cell-based, Haemonchus contortus
Description: The H. contortus isolates used were TxPh-2011-S (Texas A&M University, USA) and UGA MDR 2020 (University of Georgia Athens, USA). TxPh-2011-S (Texas A&M University, USA) was originally isolated from Pronghorn antelope in West Texas in 2011 and is fully drug susceptible, phenotypically determined by the DrenchRite larval development assay (LDA; Microbial Screening Technologies, Kemps Creek, Australia). To establish this as a laboratory isolate, it was initially passaged in goats at Texas A&M University and then at The University of Georgia using both goats and sheep, and it is currently maintained in lambs at Louisiana State University. A nemabiome assay ([69]) was conducted at the University of Calgary to confirm that the isolate is 100% H. contortus. The UGA MDR 2020 (University of Georgia Athens, USA) isolate is resistant to ivermectin, benzimidazoles, levamisole, and moxidectin, as determined by the DrenchRite LDA. To establish this as a laboratory isolate, feces collected from a sheep farm in Georgia with known history of multiple anthelmintic resistance were cultured. Two donor goats were infected with the larvae recovered, which were morphologically ([70]) identified as 89% H. contortus. A fecal egg count reduction test (FECRT) was then performed in the infected goats. First, a combination treatment with albendazole at 15 mg/kg and ivermectin at 0.4 mg/kg was performed, followed by a treatment with levamisole at 12 mg/kg. Later, and to confirm resistance to moxidectin, another treatment was administered using a dose of 0.4 mg/kg of moxidectin. Posttreatment feces were recovered, coprocultures were established, and L3 larvae were identified as 100% H. contortus. Resistance to all drugs was subsequently confirmed using a DrenchRite assay.
For LMAs, the first phase testing using compounds NSC133100 and NSC177383 was done using the Worminator system in parallel with the LDA. Initial stock solutions of 12.5 mM were prepared for each compound using 100% DMSO as a solvent. Initial stock solutions (25 μL) were then diluted in 475 μL of culture media to yield working stock solutions of 625.00, 156.30, 39.10, 9.80, 2.40, 0.60, 0.20, 0.04, and 0.00 μM in 5% DMSO for each drug. In plate, 200 μL of working stock solutions were then diluted in 800 μL of culture media, yielding concentrations of 125.00, 31.25, 7.81, 1.95, 0.49, 0.12, and 0.00 μM in 1% DMSO. For the second phase of testing, compounds showing anthelmintic activity with the LDA were tested in a second round at higher concentrations than in the first phase of testing. Initial stocks of 50 mM were prepared for compounds NSC133100, NSC177383, NSC145612, and NSC56410 using 100% DMSO as a solvent. Initial stock solutions (25-μL portions) were then diluted in 475 μL of culture media consisting of 65% Lauria-Bertani (LB) (Thermo Fisher Scientific, Branchburg, NJ), 25% NCTC (Sigma-Aldrich), 10% fetal bovine serum (Atlanta Biologicals, Flowery Branch, GA), Pen/Strep (Sigma-Aldrich) at a final concentration of […], and amphotericin B (Sigma-Aldrich) at a final concentration of […]. The working stock solutions yielded concentrations of 2,500.00, 625.00, 156.30, 39.10, 9.80, 2.40, and 0.00 μM in 5% DMSO for each compound. In each well in the plate, 200 μL of working stock solutions were then diluted in 800 μL of culture media, yielding final concentrations of 500.00, 125.00, 31.30, 7.81, 1.95, 0.49, and 0.00 μM in 1% DMSO.
For the motility assays, 24-well plates with inserts were used (Costar, catalog no. 3379; Corning, Inc., Corning, NY). Portions (640 μL) of culture media were added to each well, and approximately 50 exsheathed larvae contained in 160 μL of culture media in each insert. Once pretreatment readings were taken, 160 μL of the drug solution was added to the well, and another 40 μL was added to the insert, reaching the final concentrations described in the protocol above. All concentrations were tested in triplicate. […]

Structure (SMILES) | Percent inhibition of larval motility (15.625 µM, 1 hour) [%] | Percent inhibition of larval motility (15.625 µM, 4 hours) [%] | Percent inhibition of larval motility (15.625 µM, 24 hours) [%] | Percent inhibition of larval motility (15.625 µM, 48 hours) [%] | Percent inhibition of larval motility (15.625 µM, 72 hours) [%] | Percent inhibition of larval motility (15.625 µM, 96 hours) [%] | Percent inhibition of larval motility (15.625 µM, Initial) [%] | Percent inhibition of larval motility (31.25 µM, 1 hour) [%] | Percent inhibition of larval motility (31.25 µM, 4 hours) [%] | Percent inhibition of larval motility (31.25 µM, 24 hours) [%] | Percent inhibition of larval motility (31.25 µM, 48 hours) [%] | Percent inhibition of larval motility (31.25 µM, 72 hours) [%] | Percent inhibition of larval motility (31.25 µM, 96 hours) [%] | Percent inhibition of larval motility (31.25 µM, Initial) [%] | Percent inhibition of larval motility (62.5 µM, 4 hours) [%] | Percent inhibition of larval motility (62.5 µM, 24 hours) [%] | Percent inhibition of larval motility (62.5 µM, 48 hours) [%] | Percent inhibition of larval motility (125 µM, 1 hour) [%] | Percent inhibition of larval motility (125 µM, 4 hours) [%] | Percent inhibition of larval motility (125 µM, 24 hours) [%] | further results
CO[C@@H]1/C=C\O[C@]2(C)Oc3c(C)c(O)c4c(O)c(c(CN(C)C)c(O)c4c3C2=O)NC(=O)/C(C)=C\C=C[C@@H](C)[C@@H](O)[C@H](C)[C@@H](O)[C@H](C)[C@H](OC(C)=O)[C@@H]1C [NSC145612] | -10.3 | 7.3 | 7.0 | 8.1 | 23.0 | 17.4 | 20.3 | 20.1 | -11.2 | 27.2 | 21.9 | 43.2 | 3.9 | 21.0 | 32.0 | 10.4 | 14.1 | 31.7 | 34.3 | 15.7 | Percent inhibition of larval motility (125 µM, 48 hours): 8.1%; Percent inhibition of larval motility (125 µM, 72 hours): 3.0%; Percent inhibition of larval motility (125 µM, 96 hours): -6.9%; Percent inhibition of larval motility (125 µM, Initial): 21.6%; Percent inhibition of larval motility (250 µM, 1 hour): 13.0%; Percent inhibition of larval motility (250 µM, 24 hours): -8.6%; Percent inhibition of larval motility (250 µM, 48 hours): 13.8%; Percent inhibition of larval motility (250 µM, 96 hours): 12.8%; Percent inhibition of larval motility (250 µM, Initial): 25.9%; Percent inhibition of larval motility (500 µM, 1 hour): -19.2%; Percent inhibition of larval motility (500 µM, 4 hours): 0.4%; Percent inhibition of larval motility (500 µM, 24 hours): -12.0%; Percent inhibition of larval motility (500 µM, 48 hours): 14.1%; Percent inhibition of larval motility (500 µM, 72 hours): 9.6%; Percent inhibition of larval motility (500 µM, 96 hours): -5.1%; Percent inhibition of larval motility (500 µM, Initial): 9.3%
CO[C@@H]1/C=C/O[C@@]2(C)Oc3c(C)c(O)c4c(c3C2=O)C(=N[C@@H]2CC[C@@H](O)O[C@H]2C)C=C(NC(=O)/C(C)=C\C(=O)[C@@H]2C[C@@H]2[C@H](O)[C@@H](C)[C@@H](O)[C@@H](C)[C@H](OC(C)=O)[C@@H]1C)C4=O [NSC177383] | -22.8 | -24.6 | 15.6 | 3.0 | -5.8 | -22.4 | 19.9 | 2.3 | 5.2 | 13.8 | 41.2 | 25.5 | 17.1 | 23.2 | -28.6 | 23.5 | 26.0 | 26.8 | -34.1 | 20.5 | Percent inhibition of larval motility (125 µM, 48 hours): 31.1%; Percent inhibition of larval motility (125 µM, 72 hours): 4.1%; Percent inhibition of larval motility (125 µM, 96 hours): 5.7%; Percent inhibition of larval motility (125 µM, Initial): 22.5%; Percent inhibition of larval motility (250 µM, 1 hour): 28.8%; Percent inhibition of larval motility (250 µM, 24 hours): 30.2%; Percent inhibition of larval motility (250 µM, 48 hours): 44.8%; Percent inhibition of larval motility (250 µM, 96 hours): 31.2%; Percent inhibition of larval motility (250 µM, Initial): 43.9%; Percent inhibition of larval motility (500 µM, 1 hour): 27.1%; Percent inhibition of larval motility (500 µM, 4 hours): -12.9%; Percent inhibition of larval motility (500 µM, 24 hours): 26.6%; Percent inhibition of larval motility (500 µM, 48 hours): 49.1%; Percent inhibition of larval motility (500 µM, 72 hours): 32.3%; Percent inhibition of larval motility (500 µM, 96 hours): 21.4%; Percent inhibition of larval motility (500 µM, Initial): 36.4%
